ChEMBL document CHEMBL2062508, “Lasionectrin, a naphthopyrone from a Lasionectria sp” (J Nat Prod, 2012)

Tested on: Plasmodium falciparum
Assay: Antiplasmodial activity against Plasmodium falciparum 3D7 infected in human erythrocytes by lactate dehydrogenase assay
Type: functional, organism-based

Which IC50 does the source give for `CCC[C@@H]1C[C@H]2OC(=O)c3c(cc4cc(OC)cc(O)c4c3O)[C@H]2O1` [LASIONECTRIN] here?
Its IC50 is 11 µM.
